Results published in patent US20160008376A1, “Compositions, Methods and Uses for Treating Gender-Biased Immune Disorders” (Biocopea Limited, priority 2014, published 2016).

Test system: antibodies directed to the CH47 region of the P1/P2 ribosomal protein
Assay: Hormone added to sera of immunized female mice, antibody signal for the CH47 peptide
Format: binding
Conditions: overall
Method: In a second series of experiments, Testosterone (0 ng/mL, 0.5 ng/mL, 1 ng/mL, 2 ng/mL, and 4 ng/mL) or Progesterone (0 ng/mL, 2 ng/mL, 4 ng/mL, 8 ng/mL, and 14 ng/mL) was added to the sera of female mice immunized with a variety of different Chagas peptides (Formulation 1 or 2) that either include (B) or excluded (A) specifically peptide CH47. […] At low hormone concentrations there was an increase in the antibody signal with a subsequent decrease as the concentration of hormone further increased.

SMILES	decrease in the IgG response (hormone 0-14 ng/mL) [%]	decrease in the antibody response (hormone 0-4 ng/mL) [%]
CC(=O)[C@H]1CC[C@H]2[C@@H]3CCC4=CC(=O)CC[C@]4(C)[C@H]3CC[C@]12C [Progesterone, pregn-4-ene-3,20-dione]	26.2	–
C[C@]12CC[C@H]3[C@@H](CCC4=CC(=O)CC[C@@]43C)[C@@H]1CC[C@@H]2O [Testosterone]	–	24.4
